Reference: EP0727211A1, “Use of src SH2 specific compounds to treat a bone resorption disease” (SMITHKLINE BEECHAM CORPORATION, priority 1995, dated 1996)
pIC50, pKi: −log10 of the molar value.

Target: T1, human lck SH2 domain (Homo sapiens, UniProt P06239)
T1 construct: Cloning and expression of human lck SH2 domain containing tags and an enterokinase proteolytic cleavage site; made in house; host or cells: E. coli AR120
Test: SH2 domain / pY peptide binding assay (ELISA-based, 96 well plate), lck SH2
Details: for pKi: Ki calculated from IC50 by the expanded equation, Table II; for pIC50: cloned human SH2 domain fusion protein, 0.1 uM biotinylated pY peptide, Table I
Experimental: The inhibitory activity of compounds at the different human SH2 domains was determined in vitro using SH2 domains expressed as fusion proteins in E. coli. The SH2 domains used herein were the human forms of the src SH2 domain, Grb2 SH2 domain, lck SH2 domain, fyn SH2 domain, SH-PTP2 SH2 domain, p85 SH2 domain and hcp SH2 domain.
The fusion proteins containing the src, lck and hcp SH2 domains were expressed as the general sequence: DET1-DET2-spacer-ek-SH2, where DETI, DET2, spacer, ek and SH2 are as described below. DET1 ("defined epitope tag 1") (SEQ ID NO: 1) is an 11 amino acid sequence found in the Human Immunodeficiency Virus Type 1 (HIV-1) envelope protein gp120 (or gp160). Monoclonal antibodies to various epitopes of HIV-1 gp120 (or gp160) are known in the art, see, for example U.S. Patent 5,166,050. One preferred example is monoclonal antibody 178.1 (see, e.g., Thiriart et al., J. Immunol., 143:1832-1836 (1989)), which was prepared by immunization of mice with a yeast-expressed HIV-1 gp160 molecule from strain BH10 (Ratner et al., Nature, 313:277-284 (1985)). This tag was used for detection of expression (by Western blot), for purification of the protein (by affinity chromatography), and for configuring assays in which the fusion protein was captured or immobilized using the 178.1 antibody. DET2 is a hexahistidine sequence tag (SEQ ID NO: 2) which binds to nickel-containing resins and was used for purification purposes. Spacer (SEQ ID NO: 3) was utilized to design a BamH1 restriction site at the indicated position of the construct. The term -ekrefers to a recognition sequence (SEQ ID NO: 4) for the enterokinase protease which provides for the optional removal of the tags from the SH2 domain, thus producing an SH2 domain that contains no extraneous amino acids. SH2 domains which contain no extraneous amino acids are preferable to tagged protein for crystallography studies. SH2 refers to the SH2 domains of different proteins.
Cloning and expression of human lck SH2 domain containing tags and an enterokinase proteolytic cleavage site (DET1-DET2-spacer-ek-lck SH2).
A DNA sequence encoding protein ek-lck SH2 was PCR amplified from a cDNA clone containing the human lck gene (Genbank accession number M36881) using the following primers: [formula]
The PCR product was digested with BamHI and XbaI, followed by isolation of the digested fragment on an agarose gel. The fragment was ligated into BamHI-XbaI-digested expression vector containing the tagged chicken src gene DET1-DET2-spacer-SH2 described in Procedure 1 above. In that vector, the BamHI site is located in between the coding regions for DET2 and SH2, and the XbaI site is located after the 3' end of the SH2 coding region. Thus, the ek-lck SH2 sequence replaced the src SH2 sequence in the above vector. The ligation reaction was used to transform E. coli MM294cI^+. The construct containing […] was confirmed by DNA sequencing (SEQ ID NO: 6) and induced in E. coli strain AR120 as described in Procedure 1 above. A Coomassie-Blue-stained, Western-blot-positive induced protein band with an apparent molecular weight of 17,000 was observed after nalidixic acid induction.
Cells were lysed at neutral pH by sonication in the presance of lysozyme. After centrifugation, the soluble extract was chromatographed on a Ni^++NTA column. After washing the column with equilibration buffer (Tris buffer pH 8 containing 0.5 M NaCl) and the same buffer containing 15 mM imidazole, the protein was eluted in highly purified form with 25 mM imidazole in equilibration buffer.
The binding assays for the SH2 domains and pY peptides were performed in an ELISA-based 96 well plate assay. In Millipore 96 well filter plates, hydrophilic Durapore® (pore size 0.65um Cat. No. MADVN6550), was added 2 ul (50% suspension) of Protein-G Sepharose (available from Pharmacia of N.J. Cat. No. 17-0618-01) and either 2 ul of 2 mg/ml of MAB178. […]

T1 sequence (P06239 127-224 limits assumed): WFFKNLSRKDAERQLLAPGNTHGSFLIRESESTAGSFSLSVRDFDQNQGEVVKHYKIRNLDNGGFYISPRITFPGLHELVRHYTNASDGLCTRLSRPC

Row | Compound | pKi | pIC50
1 | 4-acetamido-benzamido-trans-4-methyl-cyclohexyl-N-1-(amino-R-2-(methoxy methyl)-pyrrolidine) carboxamide [Compound 8] | 3.44 | 3.90
2 | N[C@@H](Cc1cc(Br)c(Oc2ccc(O)c(Cc3ccc(O)nn3)c2)c(Br)c1)C(=O)O [Compound 2, L-3,5-Dibromo-3'-(6-oxo-3(1H)-pyridazinylmethyl)-thyronine] | < 3.00 | < 3.52
3 | CCCCCCNC(=O)[C@H]1CC[C@H](CNC(=O)c2ccc([N+](=O)[O-])cc2)CC1 [Compound 7, 4-nitro-benzamido-trans-4-methyl-cyclohexyl-N-hexyl carboxamide] | 3.49 | 3.42
4 | CCCNC(=O)[C@H]1CC[C@H](CNC(=O)/C=C/c2ccc(C=O)cc2)CC1 [Compound 9, 4-formyl-E-cinnamido-trans-4-methyl-cyclohexyl-N-(propyl) carboxamide] | 3.84 | 3.70

Results, then the compound that gave them:

Row | pKi | pIC50 | Compound
5 | – | 5.22 | Cc1nnc(SCC2=C(C(=O)O)N3C(=O)[C@@H](NC(=O)C(N)c4ccc(C(=O)O)cc4)[C@H]3SC2)s1 (stereo partly drawn) [Compound 1, 7-[D,L-α-Amino-α-(4-carboxyphenyl)acetamido]-3-[2-(5-methyl-1,3,4-thiadiazolyl)thiomethyl]Δ^3-cephem-4-carboxylic Acid]
6 | 4.96 | 4.64 | Cc1nc2sc3c(c2c2[nH][nH]c(=O)c12)CCC1(C3)OCCO1 [Compound 3, 8,8-Ethylenedioxy-2,3,7,8,9,10-hexahydro-4-methyl-1H-benzo[b]thieno[2,3-b]pyrazolo[3,4-d]pyridin-3-one]
7 | 3.79 | 3.79 | Cc1ccc(C(=O)c2ccc(C(=O)c3ccc(CC=O)cc3)cc2)cc1 [Compound 4, 4-[4-(4-Methylbenzoyl)benzoyl]phenylacetaldehyde]
8 | 3.83 | 4.00 | Cc1nc2sc3c(c2c2c1c(=O)[nH]n2C)CCC1(C3)OCCO1 [Compound 5, 1,4-Dimethyl-8,8-ethylenedioxy-2,3,7,8,9,10-hexahydro-1H-benzo[b]thieno[2,3-b]pyrazolo[3,4-d]pyridin-3-one]
